Reference: publication PMC8554850, “Allergens of the urushiol family promote mitochondrial dysfunction by inhibiting the electron transport at the level of cytochromes b and chemically modify cytochrome c1” (Biological Research, 2021)

Experiments:
[1] = target: T1, complex III (cytochrome bc1) (Rattus norvegicus, UniProt P00159); assay: duroquinol:cytochrome c reduction, Hanes-Woolf; cytochrome b redox spectrophotometry; format: biochemical
T1 construct: gene Mt-cyb; native complex III in liver mitochondria / submitochondrial particles; with Cytochrome c1, heme protein, mitochondrial; Cytochrome b-c1 complex subunit Rieske, mitochondrial
T1 sequence (P00159 whole entry): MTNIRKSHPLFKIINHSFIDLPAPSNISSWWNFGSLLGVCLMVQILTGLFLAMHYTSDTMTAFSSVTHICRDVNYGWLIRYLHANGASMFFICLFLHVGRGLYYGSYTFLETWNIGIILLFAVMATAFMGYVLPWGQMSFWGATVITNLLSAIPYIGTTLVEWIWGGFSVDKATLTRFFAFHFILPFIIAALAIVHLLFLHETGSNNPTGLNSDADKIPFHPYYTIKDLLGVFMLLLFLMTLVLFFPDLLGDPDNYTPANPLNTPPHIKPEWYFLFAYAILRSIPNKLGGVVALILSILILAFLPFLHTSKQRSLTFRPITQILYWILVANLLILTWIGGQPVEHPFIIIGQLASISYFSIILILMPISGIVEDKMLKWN
T1 sequence (D3ZFQ8 87-326 partner): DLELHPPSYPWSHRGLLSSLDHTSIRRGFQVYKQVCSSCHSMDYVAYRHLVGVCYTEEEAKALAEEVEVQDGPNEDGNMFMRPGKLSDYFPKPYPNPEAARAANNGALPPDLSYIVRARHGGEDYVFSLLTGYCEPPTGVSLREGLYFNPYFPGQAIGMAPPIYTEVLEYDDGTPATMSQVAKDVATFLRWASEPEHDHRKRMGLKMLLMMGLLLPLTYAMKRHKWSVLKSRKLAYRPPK
T1 sequence (P20788 79-274 partner): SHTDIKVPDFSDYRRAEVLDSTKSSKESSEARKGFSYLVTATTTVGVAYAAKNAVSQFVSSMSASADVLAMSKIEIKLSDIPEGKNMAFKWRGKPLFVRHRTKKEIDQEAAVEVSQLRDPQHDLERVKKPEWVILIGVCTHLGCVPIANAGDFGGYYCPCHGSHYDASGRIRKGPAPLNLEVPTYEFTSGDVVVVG

cytochrome c1 = target: T2, cytochrome c1 (Bos taurus, UniProt P00125); assay: tritium labelling of mitochondria, 1D and 2D-PAGE photofluorography, western blot, tryptic mass fingerprint; format: binding; conditions: covalent; labelled compound; 5 µM, 30 min, 25 °C, then chased with 1 mM cold litreol; Lys202 and N-terminal peptide proposed
T2 construct: gene CYC1; native, in isolated heart mitochondria (complex III, inner membrane); about 27 kD on SDS-PAGE; printed peptides SDLELHPPSYPWSHR (1-15) and WAAEPEHDHRK (192-202)
T2 sequence (P00125 85-325): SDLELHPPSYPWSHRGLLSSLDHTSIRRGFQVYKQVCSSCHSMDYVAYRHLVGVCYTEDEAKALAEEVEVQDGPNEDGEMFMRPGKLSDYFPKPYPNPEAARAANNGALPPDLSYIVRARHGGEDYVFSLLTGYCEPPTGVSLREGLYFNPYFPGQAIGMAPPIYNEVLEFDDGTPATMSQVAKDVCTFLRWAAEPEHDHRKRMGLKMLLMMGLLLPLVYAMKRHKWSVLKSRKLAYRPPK

In the case of `CCCC/C=C\CCCCCCCCCc1cccc(O)c1O` [litreol, 3-(10-Z-pentadecenyl)-catechol], the “duroquinol:cytochrome c reduction, Hanes-Woolf; cytochrome b redox spectrophotom” value ([1]; noncompetitive vs duroquinol and cytochrome c, 10 µM litreol, electron flow halted between bL and bH, pH 7.4) is reported as “Litreol is a noncompetitive inhibitor of complex III at the level of the cytochrome bc1”.
`CCCCCCCCCCCCCCCc1cccc(O)c1O` [3H-litreol] was tested, and the “tritium labelling of mitochondria, 1D and 2D-PAGE photofluorography, western blo” value (cytochrome c1) was “Litreol binds to an inner mitochondrial membrane protein from bovine heart mitochondria”.
For `Cc1c(C)c(O)c(C)c(C)c1O` [duroquinol], the “duroquinol:cytochrome c reduction, Hanes-Woolf; cytochrome b redox spectrophotom” value ([1]; electron donor, acceptor cytochrome c) was “The enzyme kinetics of complex III for Dur and cytochrome c were measured”.
